Reference: patent US20110053901A1, “ACETYL MIMIC COMPOUNDS FOR THE INHIBITION OF ISOPRENYL-S-CYSTEINYL METHYLTRANSFERASE” (SIGNUM BIOSCIENCES, INC., priority 2008, published 2011)

Assays:
dermal inflammation = settings: mice; cited from earlier work
[1] = molecular target: membrane-associated isoprenyl-S-cysteinyl methyltransferase (Homo sapiens, UniProt O60725); settings: cited from earlier work
[2] = system: myeloperoxidase (MPO), neutrophil marker in TPA-treated ears; assay: Mouse ear model of TPA-induced contact inflammation: MPO inhibition (dermal neutrophil infiltration); format: in vivo; settings: topical on TPA-treated mouse ear, 6 mm biopsy punches; for inhibition in vivo at 0.2 mg: dose 0.2 mg/20 μL; for inhibition in vivo at 0.8 mg: dose 0.8 mg/20 μL
From the text: (§1) G. et al., Anti-inflammatory Drugs, Clin. Pharmacol. Ther. 16, 900-4 (1974); Young et al., Tachyphylaxis in 12-Otetradecanoylphorbolacetate-and Arachidonic Acid-Induced Ear Edema; J. Invest. Dermatol. 80:48-52, (1983); Tramposch et al., In Vivo Models of Inflammation, (Morgan D W, Marshall L A eds), Birkha{umlaut over ( )}user Verlag: Basel, pp 179-204, 1999; and Gordon et al., Topical N-Acetyl-S-Farnesyl-L-Cysteine Inhibits Mouse Skin Inflammation, and Unlike Dexamethasone, Its Effects Are Restricted to the Application Site, J. Invest. Dermatol., 128(3):643-54, 2008 March)]. Moreover, the mouse ear model has been used by various groups to identify and compare members of differing classes of anti-inflammatory agents with multiple mechanisms of action (reviewed in Tramposch et al., 1999, supra).
To assay for inhibition of dermal neutrophil infiltration by S-isoprenyl and S-farnesyl cysteine compounds, a standard method was used (see Bradley et al., 1982, supra; Young et al., 1983, supra; De Young et al, “Edema and Cell Infiltration in the Phorbol Ester-treated Mouse Ear are Temporally Separate and can be Differentially Modulated by Pharmacologic Agents”, Agents Actions, 26(3-4): 335-41 (March 1989); and Rao et al. (1993) Comparative Evaluation of Arachidonic Acid (AA)-and Tetradecanoylphorbol Acetate (TPA)-Induced Dermal Inflammation, Inflammation 17:723-41). Briefly, we homogenized 6 mm biopsy punches taken from both compound-treated ears as well as TPA-treated and non-treated control groups. We quantitated the levels of MPO by a colorimetric reaction that was measured spectrophotometrically. The percent inhibition of neutrophil infiltration by each S-isoprenyl and S-farnesyl cysteine compound was determined by comparing the average MPO levels in the presence and absence of these compounds. The calculation for percent inhibition of MPO was determined similar to that as described for calculating the percent edema inhibition, see the Edema Inhibition protocol, supra. […] Gordon et al., “Topical N-acetyl-S-farnesyl-L-cysteine Inhibits Mouse Skin Inflammation, and Unlike Dexamethasone, its Effects Are Restricted to the Application Site”, J. Invest. Derm., Vol. 128 pp. 643-654 (2008).

TPA-treated ears of mice [3] = assay: Mouse ear model of TPA-induced contact inflammation: edema inhibition (ear thickness); format: in vivo; settings: topical on TPA-treated mouse ear, 24 hours; for inhibition in vivo at 0.2 mg: dose 0.2 mg/20 μL; for inhibition in vivo at 0.8 mg: dose 0.8 mg/20 μL
From the text: as §1
The protocol for inducing in vivo acute contact inflammation on the ears of live mice has been described elsewhere (reviewed in Tramposch, 1999, supra). In brief, mice were sedated and their ears were treated with 1.2 μg/20 uL TPA (i.e., tetradecanoylphorbol-13-acetate). […] After 24 hours, the mice were sacrificed and edema was measured by taking micrometer readings of each ear. The percent inhibition of edema was determined by taking the average ear thickness of compound-treated ears and dividing it by the average thickness of 12 ears that only received TPA and subtracting that value from 100%. These values were corrected for the thickness of normal, non TPA-treated mouse ears of littermate controls. […] ED50 values were calculated as described in Gordon et al., “Topical N-acetyl-S-farnesyl-L-cysteine Inhibits Mouse Skin Inflammation, and Unlike Dexamethasone, its Effects Are Restricted to the Application Site”, J. Invest. Derm., Vol. 128 pp. 643-654 (2008).

TPA-treated ears of mice [4] = assay: Mouse ear model of TPA-induced contact inflammation: erythema inhibition (Δa* redness, chroma meter); format: in vivo; settings: dose 0.2 mg/20 μL, topical on TPA-treated mouse ear, 24 hours post treatment
From the text: as §1
Another well documented biomarker of skin inflammation is skin redness, termed erythema, which is caused by capillary congestion and dilation in response to various chemical and environmental insults (see Denig, N. I. et al., Irritant Contact Dermatitis. Clues to Causes, Clinical Characteristics, and Control, Postgrad Med., May (1998); 103(5):199-200, 207-8, 212-3). […]

membrane-associated isoprenyl-S-cysteinyl methyltransferase, sequence (O60725 whole entry): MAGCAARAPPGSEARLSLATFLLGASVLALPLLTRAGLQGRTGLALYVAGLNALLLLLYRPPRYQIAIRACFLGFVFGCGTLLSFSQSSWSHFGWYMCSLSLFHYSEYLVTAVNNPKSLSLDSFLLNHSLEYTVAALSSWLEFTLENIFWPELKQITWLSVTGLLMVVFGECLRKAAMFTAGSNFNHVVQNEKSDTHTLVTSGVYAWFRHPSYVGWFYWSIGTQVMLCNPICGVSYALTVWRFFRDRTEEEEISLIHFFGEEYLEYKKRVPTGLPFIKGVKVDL

Question: Which “effect on dermal inflammation” value (dermal inflammation) does the source give for `CC(=O)N[C@@H](CSC/C=C(\C)CC/C=C(\C)CCC=C(C)C)C(=O)O` [AFC, N-acetyl-S-farnesyl-L-cysteine] here?
Answer: Its value is “effectively reduces dermal inflammation”.

Question: What about the “inhibition of isoprenyl-S-cysteinyl methyltransferase (mode)” value [1] of the same molecule?
Answer: The value was “competitive inhibitor”.

Question: Which results are given for `CNC(=S)N[C@@H](CSC/C=C(\C)CC/C=C(\C)CCC=C(C)C)C(=O)O` [Compound A]?
Answer: inhibition in vivo at 0.2 mg [2]: 8.8 ± 6.29%; inhibition in vivo at 0.2 mg (TPA-treated ears of mice [3]): 8.55 ± 3.7%

Question: With `CC/N=C(\NCC)N[C@@H](CSC/C=C(\C)CC/C=C(\C)CCC=C(C)C)C(=O)O` [Compound B] as the molecule, how does the “% Inhibition Erythema” value (TPA-treated ears of mice [4]) read?
Answer: The value was 0.51 ± 10.81 — %.

Question: What does the source list for `CC(C)=CCC/C(C)=C/CC/C(C)=C/CSC[C@H](NC(=O)N1CCOCC1)C(=O)O` [Compound C]?
Answer: inhibition in vivo at 0.8 mg [2]: 61.8%; inhibition in vivo at 0.8 mg (TPA-treated ears of mice [3]): 34.1%

Question: Which inhibition in vivo at 0.8 mg [2] does the source give for `CC(C)=CCC/C(C)=C/CC/C(C)=C/CSC[C@H](NC(=O)N1CCCCC1)C(=O)O` [Compound D] here?
Answer: Its inhibition in vivo at 0.8 mg is 83.7%.

Question: What about the inhibition in vivo at 0.8 mg (TPA-treated ears of mice [3]) of the same molecule?
Answer: The inhibition in vivo at 0.8 mg was 32.6%.

Question: For `CC(C)=CCC/C(C)=C/CC/C(C)=C/CSC[C@H](NC(=O)Nc1ccccc1)C(=O)O` [Compound E], which inhibition in vivo at 0.8 mg [2] is on record?
Answer: The inhibition in vivo at 0.8 mg was 75.4%.

Question: And the inhibition in vivo at 0.8 mg (TPA-treated ears of mice [3])?
Answer: The inhibition in vivo at 0.8 mg was 18.2%.

Question: With `CC(C)=CCC/C(C)=C/CC/C(C)=C/CSC[C@H](NC(=O)N(c1ccccc1)c1ccccc1)C(=O)O` [Compound F] as the molecule, how does the inhibition in vivo at 0.8 mg [2] read?
Answer: The inhibition in vivo at 0.8 mg was 79.5%.

Question: What about the inhibition in vivo at 0.8 mg (TPA-treated ears of mice [3]) of the same molecule?
Answer: The inhibition in vivo at 0.8 mg was 4.66%.

Question: Which results are given for `CC(C)=CCC/C(C)=C/CC/C(C)=C/CSC[C@H](NC(=O)N1CCNC1=O)C(=O)O` [Compound G]?
Answer: inhibition in vivo at 0.8 mg [2]: 58%; inhibition in vivo at 0.8 mg (TPA-treated ears of mice [3]): 13.4%

Question: Which inhibition in vivo at 0.2 mg [2] does the source give for `CC(C)=CCC/C(C)=C/CC/C(C)=C/CSC[C@H](Nc1ccnc(N)n1)C(=O)O` [Compound H] here?
Answer: The inhibition in vivo at 0.2 mg was 63.5 ± 7.03%.

Question: What about the inhibition in vivo at 0.8 mg [2] of the same molecule?
Answer: The inhibition in vivo at 0.8 mg was 89%.

Question: What about the inhibition in vivo at 0.2 mg (TPA-treated ears of mice [3]) of the same molecule?
Answer: The inhibition in vivo at 0.2 mg was 39.7 ± 1.67%.

Question: What about the inhibition in vivo at 0.8 mg (TPA-treated ears of mice [3]) of the same molecule?
Answer: The inhibition in vivo at 0.8 mg was 50.1%.

Question: For `CC(C)=CCC/C(C)=C/CC/C(C)=C/CSC[C@H](Nc1ccnc(NN)n1)C(=O)O` [Compound I], which inhibition in vivo at 0.2 mg [2] is on record?
Answer: The inhibition in vivo at 0.2 mg was 23.1 ± 6.79%.

Question: What about the inhibition in vivo at 0.2 mg (TPA-treated ears of mice [3]) of the same molecule?
Answer: The inhibition in vivo at 0.2 mg was 24.7 ± 16.5%.

Question: For `CC(C)=CCC/C(C)=C/CC/C(C)=C/CSC[C@H](Nc1ncccn1)C(=O)O` [Compound J], which inhibition in vivo at 0.2 mg (TPA-treated ears of mice [3]) is on record?
Answer: The inhibition in vivo at 0.2 mg was 1.89 ± 7.75%.
